For 23 molecules, IC50 results are on record in US11319310B2, “Heterocyclyl-substituted oxadiazolopyridine derivatives for use as ghrelin O-acyl transferase (GOAT) inhibitors” (Boehringer Ingelheim International GmbH, priority 2018, dated 2022).

What is called IC50 is the concentration needed to halve the response being measured.

SMILES strings stand for the structures.

The target of this assay is T1, human GOAT (Homo sapiens, UniProt Q96T53).
T1 construct: expressed in transfected cells; host or cells: HEK293 (Hek293 hGOAT/PPGhrl Clone #1B8), stably transfected
T1 sequence (Q96T53 1-435): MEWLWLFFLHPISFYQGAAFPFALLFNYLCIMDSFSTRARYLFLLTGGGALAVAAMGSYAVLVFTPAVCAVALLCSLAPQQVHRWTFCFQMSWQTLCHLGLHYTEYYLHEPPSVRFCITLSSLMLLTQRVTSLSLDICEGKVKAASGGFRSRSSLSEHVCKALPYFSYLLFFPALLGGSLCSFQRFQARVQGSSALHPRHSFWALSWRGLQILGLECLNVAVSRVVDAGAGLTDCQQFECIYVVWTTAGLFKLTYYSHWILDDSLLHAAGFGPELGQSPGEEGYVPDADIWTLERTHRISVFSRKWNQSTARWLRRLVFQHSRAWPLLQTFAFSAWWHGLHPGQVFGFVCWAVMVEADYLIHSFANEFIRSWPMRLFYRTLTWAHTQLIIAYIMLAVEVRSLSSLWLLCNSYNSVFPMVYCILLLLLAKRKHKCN
Kind of assay: Determination of hGOAT activity in HEK293 cells after incubation with test compound (acyl-ghrelin ELISA). The assay is classed as cell-based. The settings on record: HEK293 cells stably transfected with preproghrelin and human GOAT; octanoate-BSA 100 μM, 5 hours incubation; acyl-ghrelin in medium by ELISA; 8 compound concentrations. On the procedure: Determination of hGOAT Activity in HEK293 Cells after Incubation with Test Compound
HEK293 cells stably transfected with two expression vectors, one coding for preproghrelin cDNA and a second for the expression of human GOATcDNA are used as a cellular model. After feeding the cells with octanoic acid for 5 hours, acyl-ghrelin is measured in cell culture medium by an ELISA procedure.
Cellline: Hek293 hGOAT/PPGhrl Clone #1B8 Sodium octanoate, Sigma, Cat.-No. C5038
BD Poly-D-Lysin 384-well Plates, black-clear polystyrene BD Bioscience Cat.-No. […] ELISA human acylated Ghrelin Kit purchased from Bertin Pharman (detailed composition of buffers e.g. wash-puffer, ELISA buffer not known) All further reagents used were of highest analytical grade available.
Cells are plated with a density of 5000 cells/well in 384-well poly-D-lysin plates and incubated for 1 day at 37° C., 5% CO2 in DMEM medium, 10% FCS, 1×NEAA, Puromycin (0.5 μg/ml) and G418 (1 mg/ml). Then the medium is changed to a identical medium without FCS and containing Octanoate-BSA (final concentration 100 μM each) and compound in DMSO (final DMSO concentration 0.3%). After incubation for 5 hours acylghrelin in the medium is measured by ELISA.
The medium sample is diluted 1:25 in Elisa buffer, a 25 μl aliquot is transferred to a 384-well ELISA plate previously washed 4 times with 100 μL wash buffer, and 25 μl tracer-solution is added. After incubation overnight (˜20 h) at 4° C. temperature the plate is washed 4 times with 100 μl wash-buffer per well. Finally 50 μl Ellman's reagent is added to each well and the plate is incubated in the dark for 20 minutes. The absorbance is measured at 405 nm in an Envision multilabel reader and the amount of acylated ghrelin is calculated according to a acylated ghrelin standard curve provided in the same plate.
The analysis of the data is performed by calculation of the percentage of acyl-ghrelin produced in the presence of test compound compared to the amount of acyl-ghrelin produced in the vehicle control samples. An inhibitor of the GOAT enzyme will give values between 100% CTL (no inhibition) and 0% CTL (complete inhibition).
IC50 values are calculated with Assay Explorer or other suited software based on curve fitting of results of 8 different compound concentrations.
On the technique in general: ELISA stands for enzyme-linked immunosorbent assay.

`Cc1nc2nonc2c(N)c1CN1CC(C(F)(F)F)C1` [Example 1.6] gave an IC50 of 1.9 nM.

Regarding `Cc1nc2nonc2c(N)c1CN1CCN(S(=O)(=O)C2CC2)CC1` [Example 2.4], the concentration for half-maximal inhibition (IC50) came to 1.8 nM.

Regarding `Cc1nc2nonc2c(N)c1CN1CCC(C(C)(C)O)C1` (centres unmarked) [Example 1.11], the IC50 was 5 nM.

`Cc1nc2nonc2c(N)c1CN1CCC(C(F)(F)F)CC1` [Example 3.4] yielded an IC50 of 1.3 nM.

`COC(=O)N1CCN(Cc2c(C)nc3nonc3c2N)CC1` [Example 2.5] returned an IC50 of 6.5 nM.

As to `Cc1nc2nonc2c(N)c1CN1CCN(S(=O)(=O)C(F)F)CC1` [Example 2.6], the midpoint of inhibition, the IC50, lay at 0.49 nM.

For `Cc1nc2nonc2c(N)c1CN1CCC(O)(C(F)(F)F)C1` (centres unmarked) [Example 1.9], it took 1.1 nM to reach half-maximal inhibition (IC50).

The molecule `Cc1nc2nonc2c(N)c1CN1CCC(F)(F)C1` [Example 1.12] registered an IC50 of 7 nM. Compared with the last molecule, the IC50 is about 6.4-fold higher.

Regarding `Cc1nc2nonc2c(N)c1CN1CCOC(C)(c2ccc(F)cc2)C1` (centres unmarked) [Example 3.5], inhibition was half-maximal at 4 nM (IC50).

`Cc1nc2nonc2c(N)c1CN1CCC(OC(F)(F)F)CC1` [Example 1.4]: the IC50 amounted to 0.56 nM.

With `Cc1nc2nonc2c(N)c1CN1CCC(C#N)CC1` [Example 1.2], the IC50 amounted to 3.6 nM.

`Cc1nc2nonc2c(N)c1CN1CCC(C(F)F)CC1` [Example 1.1, 6-{[4-(Difluoromethyl)piperidin-1-yl]methyl}-5-methyl-[1,2,5]oxadiazolo[3,4-b]pyridin-7-amine] registered an IC50 of 1.3 nM.

`Cc1nc2nonc2c(N)c1CN1CCN(S(=O)(=O)C(F)(F)F)CC1` [Example 2.2]: the IC50 stood at 0.64 nM.

With `Cc1nc2nonc2c(N)c1CN1CCC(S(C)(=O)=O)CC1` [Example 1.3], the IC50 came to 4.1 nM.

`Cc1nc2nonc2c(N)c1CN1CCC(C(F)(F)F)C1` (centres unmarked) [Example 1.7] displayed an IC50 of 0.56 nM.

`Cc1nc2nonc2c(N)c1CN1CCN(C(=O)C2CC2)CC1` [Example 2.3] showed an IC50 of 4.2 nM. This IC50 lies about 7.5-fold higher than the previous one.

`Cc1nc2nonc2c(N)c1CN1CCCC(F)(F)C1` [Example 3.1, 6-(3,3-Difluoro-piperidin-1-ylmethyl)-5-methyl-[1,2,5]oxadiazolo[3,4-b]pyridin-7-ylamine] gave an IC50 of 7.4 nM.

In the case of `Cc1nc2nonc2c(N)c1CN1CCN(C(=O)OC(C)(C)C)CC1` [Example 1.5, tert-Butyl 4-({7-amino-5-methyl-[1,2,5]oxadiazolo[3,4-b]pyridin-6-yl}methyl)piperazine-1-carboxylate], the IC50 was 0.43 nM.

`Cc1nc2nonc2c(N)c1CN1CCN(S(C)(=O)=O)CC1` [Example 1.13] had an IC50 of 5.2 nM.

In turn, `Cc1nc2nonc2c(N)c1CN1CCN(C(=O)C(F)(F)F)CC1` [Example 2.1, 1-[4-({7-Amino-5-methyl-[1,2,5]oxadiazolo[3,4-b]pyridin-6-yl}methyl)piperazin-1-yl]-2,2,2-trifluoroethan-1-one] came in with an IC50 of 5.7 nM.

`Cc1nc2nonc2c(N)c1CN1CCC(c2cccc(C(F)(F)F)c2)C1` (centres unmarked) [Example 1.8] returned an IC50 of 1.4 nM.

On to `Cc1nc2nonc2c(N)c1CN1CCC(F)(F)CC1` [Example 3.2], for which the IC50 stood at 2.2 nM. Against the preceding molecule, the IC50 is about 1.6-fold higher.

`Cc1nc2nonc2c(N)c1CN1CCCC(C(F)(F)F)C1` (centres unmarked) [Example 3.3] showed an IC50 of 1.7 nM.
